Test results as given in patent US12628857B2, “Compositions comprising human milk oligosaccharides for use in a subject to support night sleep duration” (SOCIETE DES PRODUITS NESTLE S.A., priority 2020, dated 2026).

How the values were obtained:
breast-fed children [1] = experiment: Correlation of breast milk HMO levels with sleep duration (BISQ), BCP-Enriched cohort; type: in vivo, human; conditions: FIG. 1
Text: (§1) The “BISQ” questionnaire is the brief infant sleep questionnaire, this questionnaire has been developed to screen sleep problems in infants and young children. This questionnaire has also been commonly used in sleep research to quantify quantity and quality of sleep as well as sleep maturation (Sadeh A. “Sleep assessment method” Monographs Soc Res Child Dev 80(1) 2015).
(§2) In the framework of the BISQ questionnaire one or more parameters are observed and recorded that are selected in the group consisting of: nocturnal sleep duration (between the hours of 7 pm and 7 am); daytime sleep duration (between the hours of 7 am and 7 pm); number of night awaking; duration of wakefulness during the night hours (10 pm to 6 am); nocturnal sleep-onset time (the clock time at which the child falls asleep for the night); settling time (latency to falling asleep for the night); method of falling asleep; location of sleep; and preferred body position. […]
A subset of typically developing children (n=92) enrolled in the BCP cohort aged between 0-20 months who were breast-fed at the time of visit were included in this study. […] The collected BMs were analyzed for HMOs, including 2′-Fucosyllactose (2FL), 3′-Fucosyllactose (3FL), 3′-Sialyllactose (3SL), 6′-Sialyllactose (6SL), Lacto-N-tetraose (LNT), Lacto-N-neotetraose (LNnT), Lacto-N-fucopentaose I (LNFP1), and A-Tetrasaccharide. […]

breast-fed children [2] = experiment: Association of breast milk HMO levels with BISQ sleep parameters, LIFE Child cohort; type: in vivo, human; conditions: 3 months of age
Text: as §1, §2
A subset of typically developing children enrolled in the LIFE Child cohort aged between 0-12 months who were breast-fed at the time of visit were included in this study. and consists of breast milk samples—collected in mothers at 3, 6 and 12 months after child's birth—and questionnaires—collected during pregnancy and the first year of the child's life—containing information about children sleep and some related confounding factors. the analysis was conducted on 153 subjects at 3 months, 113 subjects at 6 months and 27 subjects at 12 months. The collected BMs were analyzed for HMOs, including 2′-Fucosyllactose (2FL), 3′-Fucosyllactose (3FL), 3′-Sialyllactose (3SL), 6′-Sialyllactose (6SL), Lacto-N-tetraose (LNT), Lacto-N-neotetraose (LNnT), Lacto-N-fucopentaose I (LNFP1), and A-Tetrasaccharide. The association between sleep parameters generated using the BISQ and breast milk HMO levels were evaluated using logistic regression models. […] Both LNT and total core-HMO correlated with total night sleep time assessed by the BISQ (p<0.05, FIGS. 3 and 4 respectively).

Structure (SMILES)	Correlation of total night-time sleep time with breast milk levels (breast-fed children [1]; BCP-Enriched, n=92, infant aged more than 11 months, p=0.05)	Correlation of total night time sleep with breast milk levels (breast-fed children [1]; BCP-enriched cohort, age >10 months, p<0.05)	Correlation of total night time sleep with breast milk levels (breast-fed children [2]; BISQ, p<0.05, FIGS. 3 and 4)	Dependence of the night sleep association on the method to go to sleep (need of rocking) (breast-fed children [2]; FIG. 3)	Correlation of total sleep time with breast milk levels (breast-fed children [2]; p<0.05, FIG. 2)
CC(=O)N[C@H]1[C@H]([C@H](O)[C@H](O)CO)O[C@@](O[C@H]2[C@@H](O)[C@@H](CO)O[C@@H](O[C@H]3[C@H](O)[C@@H](O)C(O)O[C@@H]3CO)[C@@H]2O)(C(=O)O)C[C@@H]1O (stereo partly drawn) [3SL, (6R)-5-Acetamido-3,5-dideoxy-6-[(1R,2R)-1,2,3-trihydroxypropyl]-β-L-threo-hex-2-ulopyranonosyl-(2→3)-β-D-galactopyranosyl-(1→4)-D-glucopyranose]	correlate positively	significantly correlated	–	–	–
CC(=O)N[C@H]1[C@H](O[C@H]2[C@@H](O)[C@@H](CO)O[C@@H](O[C@H]3[C@H](O)[C@@H](O)C(O)O[C@@H]3CO)[C@@H]2O)O[C@H](CO)[C@@H](O)[C@@H]1O[C@@H]1O[C@H](CO)[C@H](O)[C@H](O)[C@H]1O (some centres unmarked) [LNT, Lacto-N-tetraose]	–	–	significantly correlated	independent of the method to go to sleep	significantly correlated
